Where two headings read alike, the source gives them in different places.
Experiments:
PARP1 = target: T1, PARP1 (Homo sapiens, UniProt P09874); assay: Colorimetric PARP1 activity assay (Trevigen), IC50 determination; assay type: biochemical
T1 construct: purchased Trevigen, Gaithersburg, Md
Procedure: A commercially available colorimetric assay (Trevigen, Gaithersburg, Md.) was used to measure PARP activity in vitro in the presence of inhibitors. […] All experiments were carried out in triplicate. […] All reaction mixtures were adjusted to a final volume of 50 μL and a maximum final concentration 0.4% DMSO in assay buffer. The remainder of the assay was performed according to the manufacturer's instructions. PARP activity was measured by absorbance at 450 nm in each well using a Safire 2 microplate reader (Tecan Group, Männedorf, Switzerland). IC50 values were calculated using Prism software (GraphPad, La Jolla, Calif.).
A commercially available colorimetric assay (Trevigen, Gaithersburg, Md.) was used to measure PARP activity in vitro in the presence of inhibitors. […] All experiments were carried out in triplicate. […] All reaction mixtures were adjusted to a final volume of 50 μL and a maximum final concentration 0.4% DMSO in assay buffer. The remainder of the assay was performed according to the manufacturer's instructions. PARP activity was measured by absorbance at 450 nm in each well using a Safire2 microplate reader. IC50 values were calculated using the Prism software package.

[1] = system: HT-1080 cells expressing H2B-apple; assay: Intravital imaging, window chamber mice with HT-1080 H2B-apple cells; assay type: in vivo
Procedure: For the in vivo studies, mice with window chambers were implanted with 1 million HT-1080 cells expressing H2B-apple fluorescence protein. 75 nmol of AZD2281-BODIPYFL were dissolved in 75 μL of 1:1:DMAC:solutol and 75 μL of PBS and injected via tail vein. Images of the vessels were taken using a 20× water immersion objective on a laser scanning confocal microscope while the mouse was anesthetized with isoflurane.

HT1080 cells = assay: Life cell imaging, in vitro uptake and clearance kinetics; assay type: cell-based
Procedure: For in vitro kinetic studies, HT1080 cells were labeled with a 1 μM concentration of AZD2281 fluorophore conjugate in cell culture medium and imaged on an inverted Deltavision epifluorescence microscope using a 37° C. heated stage and 5% CO2 atmosphere for various times. After subtracting the background fluorescence, the data were fitted to an exponential association curve. […] Cells were washed twice in cell culture media and imaged continuously (BODIPYFL conjugate) or after various time points (BODIPY578 and BODIPY650). The loss in fluorescence was fitted to a biexponential decay curve.

[2] = system: SKOV-3, MIA Paca2, A2780, Panc-1 tumors; assay: Tumor versus muscle fluorescence uptake in Nu/Nu mice, excised tissues; assay type: in vivo; settings: 75 nmol via tail vein, 45 minutes
Procedure: For ^18F-AZD2281 standardized uptake values, five Nu/Nu mice each received four subcutaneous injections containing SKOV-3, MIA Paca2, A2780, or Panc-1 cells in the flanks and shoulders (2.5×10^6 cells in 100 μL 70:30 PBS/BD matrigel per injection) (BD Biosciences, Bedford, Mass.). Tumors were allowed to grow for two weeks before imaging. 75 nmol of AZD2281-BODIPYFL were dissolved in 75 μL of 1:1:DMAC:solutol and 75 μL of PBS and injected via tail vein. The agent was allowed to circulate and clear for 45 minutes, before the mice were sacrificed, tumors and muscle tissue excised and the relative fluorescence uptake of tissues quantified against mice which were injected with just 1:1:DMAC:solutol.

PARP1/PARP2 = assay: Comparison of AZD2281-BODIPY FL uptake and PARP1/PARP2 expression in cell lines; assay type: cell-based; settings: fixed cells, 20 minutes incubation
Procedure: RAW 264.7, Panc-1, MIA Paca2, A2780, OVCAR429, UCI 101, UCI 107, SKOV-3, OVCAR-3, and OV-90 cells (200 μL, 35,000 cells/mL) were each seeded in their respective growth medium on 96-well plates and allowed to attach for 48 hours. […] Cells were then fixed with paraformaldehyde (4% in PBS) and washed with ice cold PBS/0.1% Triton X-100/0.5% bovine serum albumin (3×200 μL, 3rd wash left for 30 min). Cells were incubated with anti-PARP-1/2 Rab (1:50; SCBT, Santa Cruz, Calif.) at 4° C. overnight. Cells were washed with PBS/0.1% Triton X-100 (3×200 μL) before stained with secondary IgG-Cy5 Gab (1:100; Millipore, Billerica, Mass.) for 3 h at 4° C. Cells were then washed with PBS (1×, 200 μL), stained with Hoechst (Invitrogen, Carlsbad, Calif.) and blue whole cell stain (Thermo Scientific, Waltham, Mass.) for 30 minutes at room temperature, and washed with PBS (3×, 200 μL) before imaging and quantification of the respective fluorescence signals.

MDA-MB-436 cells = assay: AZD2281-TCO / Texas Red-Tz bioorthogonal reaction and imaging in live MDA-MB-436 cells; assay type: cell-based; settings: sequential AZD2281-TCO (7)/Texas Red-Tz (8)
Procedure: (§1) Cells were then incubated with Texas Red-Tz (8) (25 μL, 20 μM) for 20 minutes (37° C.) before the medium was removed and cells were washed (1×, medium, 500 μL). […] Cells were washed with PBS (3×500 μL), fixed with paraformaldehyde (4% in PBS) and washed with PBS (3×500 μL, time between each wash=5 minutes). PBS was removed and cells mounted using Prolong Gold (Invitrogen, Carlsbad, Calif.) before imaging.
as §1, with “min). […]” for “minutes). PBS was removed and cells mounted using Prolong Gold (Invitrogen, Carlsbad, Calif.) before imaging.”
Cells were observed on a Nikon 80i (Nikon, Tokyo JP) microscope equipped with an ImagEM camera (Hammamatsu Photonics, Tokyo JP). […] For each image, both cell structures and nuclei structures have been obtained using the appropriate fluorescence filters and appropriate excitation signal levels to avoid collecting auto-fluorescence. […] Within each image and for each cell, the fluorescence signal for the total cell and the signal in the nuclear area was calculated using the corresponding mask as a spatial filter. […] The ratio of the fluorescent signal in the cytosol region over the signal in the nuclear region was then calculated. […]

MDA-MB-436 tumors = assay: PET-CT imaging of MDA-MB-436 tumor-bearing mice, with and without AZD2281; assay type: in vivo; settings: 1 mg AZD2281 BID, then re-injection of probe
Procedure: Non-tumor bearing Nu/Nu mice were injected with (6^18F) and used for organ distribution immediately after injection over a time period of 2 hours. Tumor-bearing mice received s.c. injections with 5×10^6 MDA-MB-436 cells (American Type Culture Collection) in Matrigel (BD Biosciences) into each flank and underwent imaging 7 days later (injection of (6^18F) and immediate imaging over a time period of 2 hours). All mice were anesthetized (isoflurane 1.5%; O2 2 L/min) during imaging with a gas delivery system integrated into a multimodal imaging cartridge. All animal experiments were approved by Massachusetts General Hospital's Institutional Review Committee.
Images were acquired on the Siemens Inveon PET-CT. Each PET acquisition was 120 minutes in duration. PET was reconstructed from 600 million coincidental 511 keV photon counts on a series of LSO (lutetium oxyorthosilicate) scintillating crystals. Counts were rebinned in 3D by registering photons spanning no more than 3 consecutive rings and reconstructed into sinograms using a high resolution Fourier Rebin algorithm. Sinograms also yielded a 3D mapping of positron signal using a 2D filtered back-projection algorithm and a Ramp filter with a Nyquist cut-off of 0.5. […] Data are expressed as standard uptake values (SUV), which normalizes activity measurements to body weight and injected activity. […]

A2780 tumors = assay: Non-invasive monitoring of treatment response in tumor-bearing Nu/Nu mice (SUV); assay type: in vivo; settings: treatment with Olaparib
Procedure: ^18F-AZD2281 was synthesized as described herein. Nu/Nu mice bearing either A2780 tumors (treatment response) or A2780, Paca2, Panc1 and SKOV3 (differential uptake) were injected with the hot probe (500-750 μCi) and imaged ˜1.5 hours thereafter. Treatment consisted of injection of 0.5-1.0 mg AZD2281 (Olaparib) 18 hours before imaging (ip, interperitoneal) or ˜1.5-3.5 hours before imaging (iv, intravenous). Uptake was determined non-invasively by drawing SUVs (Standard Uptake Values).

[3] = 1 μM, HT1080, exponential association fit
[4] = labeled at 1 μM for 1 hour, washed, biexponential decay fit

T1 sequence (P09874 whole entry): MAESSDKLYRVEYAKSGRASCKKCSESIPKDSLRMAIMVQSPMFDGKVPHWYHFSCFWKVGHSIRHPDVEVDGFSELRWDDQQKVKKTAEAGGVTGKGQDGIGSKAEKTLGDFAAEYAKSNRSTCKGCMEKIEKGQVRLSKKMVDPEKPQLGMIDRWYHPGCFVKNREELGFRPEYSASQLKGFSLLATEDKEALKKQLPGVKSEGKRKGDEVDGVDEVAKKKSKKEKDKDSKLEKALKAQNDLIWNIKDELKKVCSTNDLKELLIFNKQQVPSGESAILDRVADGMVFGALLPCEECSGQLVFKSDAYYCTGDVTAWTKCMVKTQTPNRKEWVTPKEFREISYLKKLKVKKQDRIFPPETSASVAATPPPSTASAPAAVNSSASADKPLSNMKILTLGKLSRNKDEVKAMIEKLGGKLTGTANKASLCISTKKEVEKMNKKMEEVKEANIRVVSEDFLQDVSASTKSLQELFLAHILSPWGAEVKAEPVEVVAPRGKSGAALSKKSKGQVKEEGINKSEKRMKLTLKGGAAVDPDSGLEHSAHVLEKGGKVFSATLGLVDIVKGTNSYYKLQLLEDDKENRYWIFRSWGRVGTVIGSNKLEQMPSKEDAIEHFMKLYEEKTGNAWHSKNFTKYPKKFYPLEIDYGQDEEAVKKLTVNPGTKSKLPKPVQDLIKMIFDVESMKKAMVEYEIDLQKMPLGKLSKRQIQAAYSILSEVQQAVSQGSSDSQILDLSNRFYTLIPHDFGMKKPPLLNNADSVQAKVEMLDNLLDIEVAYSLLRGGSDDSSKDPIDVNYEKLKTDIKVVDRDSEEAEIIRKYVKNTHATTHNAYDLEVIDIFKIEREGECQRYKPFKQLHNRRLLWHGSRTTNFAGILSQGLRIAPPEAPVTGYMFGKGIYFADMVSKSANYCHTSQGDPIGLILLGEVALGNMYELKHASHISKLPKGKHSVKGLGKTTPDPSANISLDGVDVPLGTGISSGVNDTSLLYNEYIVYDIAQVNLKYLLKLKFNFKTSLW

With O=C(CF)N1CCN(C(=O)c2cc(Cc3n[nH]c(=O)c4ccccc34)ccc2F)CC1 [17^19F] the IC50 (PARP1) was 5.2 ± 1.1 nM.
In the case of Cc1cc(C)n2c1C=C1C=CC(CCC(=O)N3CCN(C(=O)c4cc(Cc5n[nH]c(=O)c6ccccc56)ccc4F)CC3)=[N+]1[B-]2(F)F [AZD2281-BODIPY FL], the “time after which non-specific uptake cleared, revealing nuclear uptake” value ([1]; 75 nmol via tail vein) is reported as 1 h, the “distribution in tumor after iv injection” value ([1]; first in vascular system, then tumor cells) is reported as “concentrates in each and every tumor cell of the tumor” and the “Uptake, Nucleus” value (HT1080 cells; [3]) is reported as “Nucleus = 1.1 min”. For the same compound, the “Uptake, Perinuclear” value (HT1080 cells; [3]) was “Perinuclear = 1.2 min”, the “Clearance (weighted), Nucleus” value (HT1080 cells; [4]) was “Nucleus = slow” and the “Clearance (weighted), Perinuclear” value (HT1080 cells; [4]) was “Perinuclear = 1.7 min”. For the same compound, the “uptake in muscle compared to tumor tissues” value [2] was “very little of the compound gets taken up by muscle cells compared to the tumor tissues” and the cellular localization (PARP1/PARP2) was “localizes with the nucleus”.
O=C(CCCC(=O)N1CCN(C(=O)c2cc(Cc3n[nH]c(=O)c4ccccc34)ccc2F)CC1)NCCNC(=O)C1C[C@@H]2C=C[C@H]1C2 (stereo partly shown) [AZD2281-NOB] showed an IC50 (PARP1; Example 1, 0.5 units PARP HSA, 10 minutes, read-out: IC50) of 10.1 ± 1.3 nM.
With O=C(CCCC(=O)N1CCN(C(=O)c2cc(Cc3n[nH]c(=O)c4ccccc34)ccc2F)CC1)NCCNC(=O)OC1CC/C=C/CCC1 (stereo not shown) [AZD2281-TCO] the “spatial correlation of Texas Red staining with anti-PARP1 Mab staining” value (MDA-MB-436 cells) was “excellent spatial correlation”.
O=C(c1cc(Cc2n[nH]c(=O)c3ccccc23)ccc1F)N1CCN(C(=O)C2CC2)CC1 [AZD2281] was tested, and the “effect on uptake of 18F-AZD2281 into tumors” value (MDA-MB-436 tumors) was “inhibition of the probe s uptake into the tumors”.
In the case of OC[C@H]1O[C@@H](O)[C@H]([18F])[C@@H](O)[C@@H]1O [FDG], the “ability to distinguish between treated and untreated tumors (tumor/muscle signal intensity)” value (A2780 tumors) is reported as “not able”.

— patent US9649394B2, “Compositions and methods for in vivo imaging” (The General Hospital Corporation, priority 2010, dated 2017)
